Common to all, as to type: in vivo
In one test the test system is rice (Oryra sativa). As to the kind of experiment: Test B flooded paddy test. The settings on record: Oryza sativa, 250 g ai/ha, Flood. The method, boiled down:
(§1)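 2-leaf plants; pots flooded 3 cm over soil; cpd added to paddy water; depth held; greenhouse 13–15 d; visual rating vs controls, 0 = no effect, 100 = complete control.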

Test [1] deals with ducksalad (Heteranthera limosa). Nature of the test: Test B flooded paddy test. The following applies: Heteranthera limosa, 250 g ai/ha, Flood. The gist of the method:
as §1

For test [2], the system named is barnyardgrass (Echinochloa crus-galli). Nature of the test: Test B flooded paddy test. The settings on record: Echinochloa crus-galli, 250 g ai/ha, Flood. The gist of the method:
as §1

The test system of test [3] is sedge, umbrella (small-flower umbrella sedge, Cyperus difformis). As to the kind of experiment: Test B flooded paddy test. The settings on record: Cyperus difformis, Flood, 250 g ai/ha. The method, boiled down:
as §1

Test [4] deals with corn (Zea mays). As to the kind of experiment: Test G Post-Emergence Protocol. The following applies: Zea mays, post-emergence, 312 h. The gist of the method: (§2)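 Seedlings grown 8 days in soil in a glasshouse (24/16 °C day/night, 14 h light, 65% humidity) were sprayed post-emergence with compound in acetone/water 50:50 plus 0.5% Tween 20 at 15.625, 62.5 or 250 g/ha. Damage was scored after 13 days on a 0–100 scale (100 = total damage).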

Test [5] has as its system giant foxtail (Setaria faberi). As to the kind of experiment: Test G Post-Emergence Protocol. The following applies: Setaria faberi, post-emergence, 312 h. The method, boiled down:
as §2

Test [6] concerns barnyardgrass (Echinochloa crus-galli). As to the kind of experiment: Test G Post-Emergence Protocol. The settings on record: Echinochloa crus-galli, post-emergence, 312 h. The gist of the method:
as §2

The test system of test [7] is ivy-leaved morning glory (Ipomoea hederacea). Nature of the test: Test G Post-Emergence Protocol. The settings on record: Ipomoea, post-emergence, 312 h. The gist of the method: as §2
The test system of test [8] is redroot pigweed (Amaranthus retroflexus). As to the kind of experiment: Test G Post-Emergence Protocol. The settings on record: Amaranthus retroflexus, post-emergence, 312 h. The gist of the method: as §2
Test [9] relates to velvetleaf (Abutilon theophrasti). As to the kind of experiment: Test G Post-Emergence Protocol. The settings on record: Abutilon theophrasti, post-emergence, 312 h. The gist of the method: as §2
Test [10] deals with corn (Zea mays). Nature of the test: Test G Pre-Emergence Protocol. The settings on record: Zea mays, pre-emergence, 312 h, evaluated after 13 days. The method, boiled down:
(§3)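 Spraying took place one day after sowing, at 15.625, 62.5 or 250 g/ha, using an acetone/water (50:50) spray solution containing 0.5% Tween 20. Plants were kept under glasshouse conditions (24/16 °C, 14 h light, 65% humidity, watered twice daily), and injury was rated 0–100 at day 13.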

Test [11] relates to giant foxtail (Setaria faberi). Nature of the test: Test G Pre-Emergence Protocol. The following applies: Setaria faberi, pre-emergence, 312 h, evaluated after 13 days. The gist of the method:
as §3

The subject of test [12] is ivy-leaved morning glory (Ipomoea hederacea). As to the kind of experiment: Test G Pre-Emergence Protocol. The settings on record: Ipomoea, pre-emergence, 312 h, evaluated after 13 days. The gist of the method: as §3
Where [13] appears, read: 0 to 100 scale where 0 is no effect and 100 is complete control, read-out: Rice plant response rating.
Where [14] appears, read: 0 to 100 scale where 0 is no effect and 100 is complete control, read-out: Ducksalad plant response rating.
Setting [15] is: 0 to 100 scale where 0 is no effect and 100 is complete control, read-out: Barnyardgrass plant response rating.
[16] abbreviates: 360 h, visually evaluated after 13 to 15 d, read-out: Plant response rating, Sedge, Umbrella (0 to 100 scale where 0 is no effect and 100 is complete control).
[17] abbreviates: scale of 0 to 100 where 0 is no effect and 100 is complete control, read-out: Rice plant response rating.
Where [18] appears, read: scale of 0 to 100 where 0 is no effect and 100 is complete control, read-out: Ducksalad plant response rating.
Where [19] appears, read: scale of 0 to 100 where 0 is no effect and 100 is complete control, read-out: Barnyardgrass plant response rating.
The mark [20] stands for this setting: scale of 0 to 100 where 0 is no effect and 100 is complete control, read-out: Sedge, Umbrella plant response rating.
Setting [21] is: 0 to 100 scale where 0 is no effect and 100 is complete control, read-out: Sedge, Umbrella plant response rating.

Structures are written as SMILES. Like-named read-outs stand apart in the source and are kept apart here.

As to `CN1C[C@H](c2ccc3c(c2)CCO3)[C@@H](C(=O)Nc2ccccc2F)C1=O` [Compound 1321], the pest or weed control at 250 g/ha was determined as 0% with rice (Oryra sativa) (setting [13]), 85% in [1] (setting [14]), 90% in test [2] (setting [15]) and 0% in test [3] (setting [16]).
For the compound `CC(F)(F)c1cccc([C@H]2CNC(=O)[C@@H]2C(=O)Nc2ccc(F)cc2F)c1` [Compound 781], the pest or weed control at 250 g/ha with rice (Oryra sativa) (setting [17]) was found to be 0%; in [1] (setting [18]) it was 100%; in test [2] (setting [19]) it was 65%; in [3] (setting [20]), 0%.
`O=C1NC[C@H](c2ccc(C(F)(F)F)cc2)[C@H]1C(=O)Nc1ccccc1C1CC1` [Compound 746]: the pest or weed control at 250 g/ha was 0% in the test on rice (Oryra sativa) (setting [17]), 95% in test [1] (setting [18]), 0% in [2] (setting [19]) and 0% in [3] (setting [20]).
On to `CN1C[C@H](c2cc(F)cc(C(F)(F)F)c2)[C@@H](C(=O)Nc2cccc(Cl)c2F)C1=O` [Compound 995], for which the pest or weed control at 250 g/ha came out at 0% in the test on rice (Oryra sativa) (setting [17]), 70% in [1] (setting [18]), 25% in [2] (setting [19]) and 30% in test [3] (setting [21]).
`Cc1cc([C@H]2CNC(=O)[C@@H]2C(=O)Nc2ccc(F)cc2F)ccc1Cl` [Compound 791]: the pest or weed control at 250 g/ha in the test with rice (Oryra sativa) (setting [17]) was 0%; in test [1] (setting [18]) it was 100%; in test [2] (setting [19]) it was 0%; in [3] (setting [20]), 0%.
As to `CN1C[C@H](c2ccc(C(F)(F)F)cc2)[C@@H](C(=O)Nc2ccccc2C2CC2)C1=O` [Compound 747], the pest or weed control at 250 g/ha with rice (Oryra sativa) (setting [17]) was 15%; in test [1] (setting [18]) it was 90%; in test [2] (setting [19]) it was 0%; in [3] (setting [20]), 0%.
Take `O=C1NC[C@H](c2cncs2)[C@H]1C(=O)Nc1ccccc1F` [Compound 1335]: the pest or weed control at 250 g/ha was found to be 0% in the test with rice (Oryra sativa) (360 h, visually evaluated after 13 to 15 d, read-out: Plant response rating, Rice (0 to 100 scale where 0 is no effect and 100 is complete control)); 0% in test [1] (360 h, visually evaluated after 13 to 15 d, read-out: Plant response rating, Ducksalad (0 to 100 scale where 0 is no effect and 100 is complete control)); 0% in test [2] (360 h, visually evaluated after 13 to 15 d, read-out: Plant response rating, Barnyardgrass (0 to 100 scale where 0 is no effect and 100 is complete control)); 0% in test [3] (setting [16]).
For the compound `CN1C[C@H](c2ccc(C(F)(F)F)cc2)[C@@H](C(=O)Nc2ccccc2)C1=O` [Compound 1253], the pest or weed control at 250 g/ha in the test on rice (Oryra sativa) (setting [13]) worked out at 0%; in test [1] (setting [14]) it was 100%; in test [2] (setting [15]) it was 40%; in [3] (setting [21]) it was 0%.
`CN1C[C@@H](c2ccc(C(F)(F)F)cc2)[C@H](C(=O)Nc2ccnc(Cl)c2Cl)C1=O` (racemic) [Compound 1503]: the plant injury at 15.625 g/ha with corn (Zea mays) [4] (15.625 g ai/ha, evaluated after 13 days (100=total damage to plant; 0=no damage to plant), read-out: Corn damage rating) was 0%; in the test on corn (Zea mays) [10] (15.625 g ai/ha, read-out: Corn damage rating (100=total damage to plant; 0=no damage to plant)), 0%. Besides, the plant injury at 62.5 g/ha was 10% in the test with corn (Zea mays) [4] (62.5 g ai/ha, evaluated after 13 days, read-out: Corn damage rating (100=total damage to plant; 0=no damage to plant)) and 0% in the test on corn (Zea mays) [10] (62.5 g ai/ha, 100=total damage to plant, 0=no damage to plant, read-out: plant damage rating, Corn). Besides, the plant injury at 250 g/ha with corn (Zea mays) [4] (250 g ai/ha, evaluated after 13 days, read-out: damage to plant, Corn (100=total damage to plant; 0=no damage to plant)) amounted to 10%; with corn (Zea mays) [10] (250 g ai/ha, read-out: Corn damage rating (100=total damage to plant; 0=no damage to plant)), 0%. Moreover, the pest or weed control at 15.625 g/ha in [5] (15.625 g ai/ha, evaluated after 13 days (100=total damage to plant; 0=no damage to plant), read-out: Foxtail, Giant damage rating) was 0%; in [6] (15.625 g ai/ha, evaluated after 13 days (100=total damage to plant; 0=no damage to plant), read-out: Barnyardgrass damage rating) it was 0%; in test [7] (15.625 g ai/ha, evaluated after 13 days (100=total damage to plant; 0=no damage to plant), read-out: Morningglory, Ivy-leaved damage rating), 0%; in [8] (15.625 g ai/ha, evaluated after 13 days (100=total damage to plant; 0=no damage to plant), read-out: Pigweed, Redroot damage rating), 0%; in [9] (15.625 g ai/ha, evaluated after 13 days (100=total damage to plant; 0=no damage to plant), read-out: Velvetleaf damage rating), 0%; in test [11] (15.625 g ai/ha, read-out: Foxtail, Giant damage rating (100=total damage to plant; 0=no damage to plant)) it was 0%. The pest or weed control at 62.5 g/ha in test [5] (62.5 g ai/ha, evaluated after 13 days, read-out: Foxtail, Giant damage rating (100=total damage to plant; 0=no damage to plant)) turned out to be 20%; in [6] (62.5 g ai/ha, evaluated after 13 days, read-out: Barnyardgrass damage rating (100=total damage to plant; 0=no damage to plant)), 10%; in test [7] (62.5 g ai/ha, evaluated after 13 days, read-out: Morningglory, Ivy-leaved damage rating (100=total damage to plant; 0=no damage to plant)), 0%; in test [8] (62.5 g ai/ha, evaluated after 13 days, read-out: Pigweed, Redroot damage rating (100=total damage to plant; 0=no damage to plant)) it was 0%; in test [9] (62.5 g ai/ha, evaluated after 13 days, read-out: Velvetleaf damage rating (100=total damage to plant; 0=no damage to plant)) it was 0%; in test [11] (62.5 g ai/ha, 100=total damage to plant, 0=no damage to plant, read-out: plant damage rating, Foxtail, Giant), 0%. Further, the pest or weed control at 62.5 g/ha in test [12] (62.5 g ai/ha, 100=total damage to plant, 0=no damage to plant, read-out: plant damage rating, Morningglory, Ivy-leaved) is 0%. Also, the pest or weed control at 250 g/ha in test [5] (250 g ai/ha, evaluated after 13 days, read-out: damage to plant, Foxtail, Giant (100=total damage to plant; 0=no damage to plant)) stood at 40%; in test [6] (250 g ai/ha, evaluated after 13 days, read-out: damage to plant, Barnyardgrass (100=total damage to plant; 0=no damage to plant)), 10%; in test [7] (250 g ai/ha, evaluated after 13 days, read-out: damage to plant, Morningglory, Ivy-leaved (100=total damage to plant; 0=no damage to plant)), 0%; in test [8] (250 g ai/ha, evaluated after 13 days, read-out: damage to plant, Pigweed, Redroot (100=total damage to plant; 0=no damage to plant)), 0%; in test [9] (250 g ai/ha, evaluated after 13 days, read-out: damage to plant, Velvetleaf (100=total damage to plant; 0=no damage to plant)), 0%; in test [11] (250 g ai/ha, read-out: Foxtail, Giant damage rating (100=total damage to plant; 0=no damage to plant)), 30%. For the same compound, the pest or weed control at 250 g/ha in test [12] (250 g ai/ha, read-out: Morningglory, Ivy-leaved damage rating (100=total damage to plant; 0=no damage to plant)) worked out at 0%.
